{"source": "patent US7875587B2", "about": "“Peptide analogues of GIP for treatment of diabetes, insulin resistance and obesity” (UUTECH Limited, priority 2004, dated 2011)", "biological_target": "T1, human GIP receptor (Homo sapiens, UniProt P48546)", "T1 construct": "expressed in transfected cells; host or cells: Chinese hamster lung (CHL) fibroblasts, stably transfected", "T1 sequence (P48546 22-466)": "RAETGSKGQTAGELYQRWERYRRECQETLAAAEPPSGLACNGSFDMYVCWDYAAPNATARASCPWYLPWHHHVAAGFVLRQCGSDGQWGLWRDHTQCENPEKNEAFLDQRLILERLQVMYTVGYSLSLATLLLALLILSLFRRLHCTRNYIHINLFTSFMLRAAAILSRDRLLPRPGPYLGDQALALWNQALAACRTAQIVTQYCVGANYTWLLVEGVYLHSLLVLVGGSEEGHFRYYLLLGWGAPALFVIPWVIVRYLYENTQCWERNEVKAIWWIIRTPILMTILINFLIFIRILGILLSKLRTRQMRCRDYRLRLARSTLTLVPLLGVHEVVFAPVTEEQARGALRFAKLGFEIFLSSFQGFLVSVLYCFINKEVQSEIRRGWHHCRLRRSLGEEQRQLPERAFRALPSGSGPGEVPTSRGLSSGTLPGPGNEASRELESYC", "assay": "GIP-stimulated cyclic AMP generation in GIP receptor transfected CHL cells (antagonism)", "format": "cell-based", "details": "in the presence of native GIP (10^-7 M)", "experimental": "Tissue culture. Chinese hamster lung (CHL) fibroblast cells stably transfected with the human GIP receptor were cultured in DMEM tissue culture medium containing 10% (v/v) foetal bovine serum, 1% (v/v) antibiotics (100 U/ml penicillin, 0.1 mg/ml streptomycin). BRIN-BD11 cells were cultured using RPMI-1640 tissue culture medium containing 10% (v/v) foetal bovine serum, 1% (v/v) antibiotics (100 U/ml penicillin, 0.1 mg/ml streptomycin). Cells were maintained in sterile tissue culture flasks (Corning Glass Works, Sunderland, UK) at 37° C. in an atmosphere of 5% CO2 and 95% air using an LEEC incubator (Laboratory Technical Engineering, Nottingham, UK).\nAcute studies of cyclic AMP generation. GIP receptor transfected CHL cells were seeded into 12-well plates (Nunc, Roskilde, Denmark) at a density of 1.0×10^5 cells per well. The cells were then allowed to grow for 48 hours before being loaded with tritiated adenine (2 μCi; TRK311, Amersham, Buckinghamshire, UK) and incubated at 37° C. for 6 hours in 1 ml DMEM, supplemented with 0.5% (w/v) […]. The cells were then washed twice with HBS buffer (130 mM NaCl, 20 mM HEPES, 0.9 mM NaHPO4, 0.8 mM MgSO4, 5.4 mM KCl, 1.8 mM CaCl2, 25 mM glucose, 25 μM phenol red, pH 7.4). […]", "note": "No end group written: not given here."}
{"sequence": "YAPGTFISDYSIAMDKIHQQDFVNWLLAQKGKKNDWKHNITQ [(Pro^3)GIP]", "values": [{"measurement": "inhibition of GIP-stimulated cyclic AMP production", "value": "inhibited in dose-dependent fashion"}]}
